Assay results: patent US20260022352A1, “COMPOSITIONS AND METHODS FOR PURIFYING […]” (North Carolina State University, priority 2023, published 2026)
Values joined by “and” are separate entries in the source; they are usually repeats but may differ in a detail not shown here. Identical values can stand only once. Where no end group is shown, it is not given here.

Tests used:
LVV particles [1] = test system: LVV particles; set-up: species or system lentivirus
LVV particles [2] = test system: LVV particles; set-up: species or system lentivirus; remark: listed apart in the source
LVV particles [3] = type: binding, lentivirus

Substance | DBC10% (TU per mL of resin) (LVV particles [1]) | LVV adsorbed (binding capacity) across cycles (LVV particles [2]) | binding capacity (summary) (LVV particles [3]) | DBC10% (vg/mL), real time qPCR (LVV particles [3])
GKEAAFAA | 5.3 · 10^9 TU per mL of resin and 3.9 · 10^9 TU per mL of resin and 4.4 · 10^9 TU per mL of resin and 3.7 · 10^9 TU per mL of resin | > 10^9 TU/mL |  | 
SFVRIGLSD |  | ~10^9 TU/mL | ~6.24·10^9 TU per mL of resin | 
SRAFVGDADRD |  | ~10^9 TU/mL | ~6.24·10^9 TU per mL of resin | 
SRAFVGDADRD-Poros: peptide SRAFVGDADRD (SEQ ID NO: 4) conjugated on aminated Poros resin (also: conjugated to aminated Poros resin, site not given here) |  |  |  | 6.89·10^9 vg/mL
